In the supplement of paper PMC4862054:

Experiments:
Assay in all cases: normalised response (% of control), CellTiter-Glo; higher = more viable cells (100 = DMSO, 0 = benzethonium chloride kill control)
Conditions in all cases: incubation time: 72 h
BT-474 = tested on: BT-474
How it was run: (§1)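 Values are normalised signals, each belonging to one concentration of the series. Breast cancer cells (20 µl suspension) were seeded into 384-well plates with compound at 5 concentrations in 10-fold steps over a compound-specific 10,000-fold range and incubated 72 h. Readouts were CellTox Green fluorescence (485/520 nm), then CellTiter-Glo luminescence after 10 min at room temperature, with each plate set to 0.1 % DMSO as 100 and a positive kill control as 0.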

BT-549 = tested on: BT-549
How it was run: as §1

CAL-120 = tested on: CAL-120
How it was run: as §1

CAL-148 = tested on: CAL-148
How it was run: as §1

CAL-51 = tested on: CAL-51
How it was run: as §1

CAL-85-1 = tested on: CAL-85-1
How it was run: as §1

DU-4475 = tested on: DU-4475
How it was run: as §1

HCC1143 = tested on: HCC1143
How it was run: as §1

HCC1599 = tested on: HCC1599
How it was run: as §1

HCC1937 = tested on: HCC1937
How it was run: as §1

HDQ-P1 = tested on: HDQ-P1
How it was run: as §1

Hs578T = tested on: Hs578T
How it was run: as §1

MCF-10A = tested on: MCF-10A
How it was run: as §1

MDA-MB-231 = tested on: MDA-MB-231
How it was run: as §1

MDA-MB-436 = tested on: MDA-MB-436
How it was run: as §1

MDA-MB-453 = tested on: MDA-MB-453
How it was run: as §1

MDA-MB-468 = tested on: MDA-MB-468
How it was run: as §1

MFM-223 = tested on: MFM-223
How it was run: as §1

SK-BR-3 = tested on: SK-BR-3
How it was run: as §1

SMILES	normalised response (BT-474) [%]	normalised response (BT-549) [%]	normalised response (CAL-120) [%]	normalised response (CAL-148) [%]	normalised response (CAL-51) [%]	normalised response (CAL-85-1) [%]	normalised response (DU-4475) [%]	normalised response (HCC1143) [%]	normalised response (HCC1599) [%]	normalised response (HCC1937) [%]	normalised response (HDQ-P1) [%]	normalised response (Hs578T) [%]	normalised response (MCF-10A) [%]	normalised response (MDA-MB-231) [%]	normalised response (MDA-MB-436) [%]	normalised response (MDA-MB-453) [%]	normalised response (MDA-MB-468) [%]	normalised response (MFM-223) [%]	normalised response (SK-BR-3) [%]
COc1nc(N)nc2c1ncn2[C@@H]1O[C@H](CO)[C@@H](O)[C@@H]1O [Nelarabine] (10 nM)	87.5	99.5	90.8	81.3	77.6	96.4	98	96.2	88.6	102	89.9	96.5	88.7	97.4	97.7	88.1	90.5	88	70.6
Cc1ccc(Nc2nccc(N(C)c3ccc4c(C)n(C)nc4c3)n2)cc1S(N)(=O)=O [Pazopanib] (1 nM)	98.1	104	95.4	108	98.5	110	109	97.4	100	96.2	101	99.8	94.8	96.8	97.3	125	106	99.3	109
CS(=O)(=O)N1CCN(Cc2cc3nc(-c4cccc5[nH]ncc45)nc(N4CCOCC4)c3s2)CC1 [Pictilisib] (10 nM)	98.3	95.7	91.4	105	110	103	102	99.8	102	99.7	95.3	96.3	102	94.2	98.9	101	101	96.7	105
O=C(NC[C@H](O)CO)c1ccncc1Nc1ccc(I)cc1F [Pimasertib] (1 nM)	100	100	99.8	97.7	62.2	97.9	99.9	93.2	106	100	93.8	97.2	82.8	105	99.5	105	97.5	97.6	98.5
O=C(CCBr)N1CCN(C(=O)CCBr)CC1 [Pipobroman] (1 nM)	96.6	105	99.4	111	106	103	106	99.4	105	104	104	102	103	97.8	91.7	98.1	105	99.1	115
O=C(CCBr)N1CCN(C(=O)CCBr)CC1 [Pipobroman] (10 nM)	102	101	99.5	105	89.7	102	106	100	117	104	105	101	109	98.2	98.8	104	108	101	107
c1cc(CN2CCCNCCNCCCNCC2)ccc1CN1CCCNCCNCCCNCC1 [Plerixafor] (1 nM)	95.8	105	102	98.5	82.4	92.3	91	98.7	105	95.9	103	98.2	81.4	96.9	94.3	87.1	97.3	85.5	81.3
C[C@]12C=CC(=O)C=C1CC[C@@H]1[C@@H]2[C@@H](O)C[C@@]2(C)[C@H]1CC[C@]2(O)C(=O)CO [Prednisolone] (1 nM)	106	112	110	110	84.8	96.9	108	96.9	102	96.9	101	102	104	102	102	112	106	102	110
C[C@]12C=CC(=O)C=C1CC[C@@H]1[C@@H]2[C@@H](O)C[C@@]2(C)[C@H]1CC[C@]2(O)C(=O)CO [Prednisolone] (10 nM)	112	99.8	103	113	99.4	102	106	100	97.6	100	100	101	112	108	95.9	106	105	104	112
Cn1cc(CNCC2CCN(c3ncc(C(=O)NO)cn3)CC2)c2ccccc21 [Quisinostat] (0.1 nM)	104	99.8	103	109	84.2	107	103	105	92.9	99.6	100	96.5	109	106	101	109	109	104	108
Cn1cc(CNCC2CCN(c3ncc(C(=O)NO)cn3)CC2)c2ccccc21 [Quisinostat] (1 nM)	107	97.8	96.8	110	121	97.7	102	103	110	97.1	94.3	96.8	107	101	104	105	97	104	102
